In brackets after ≈: the same amount, converted by molar mass. Activity calls are given as the source filed them. The calls are words filed in the database; no cut-off is given here.
Tests used:
[1] = Oral bioavailability in Sprague-Dawley rat at 5 mg/kg; type: ADME, organism-based; conditions: in vivo
Rattus norvegicus [2] = assay: Anti-pulmonary fibrosis activity in Sprague-Dawley rat model of BLM-induced idiopathic pulmonary fibrosis assessed as inhibition of alpha-SMA protein expression at 10 mg/kg, po dosed daily for 28 days by immunofluorescence staining analysis; type: functional, organism-based
Homo sapiens = organism: Homo sapiens; assay: Anti-pulmonary fibrosis activity in human HLF assessed as reduction in TGF-beta-induced myofibroblast differentiation by measuring reduction in fibronectin protein expression incubated for 48 hrs by Western blot analysis; type: functional
[3] = Solubility in pH 6 solution by HPLC analysis; type: physicochemical
[4] = Solubility in pH 7.3 solution by HPLC analysis; type: physicochemical
[5] = molecular target: High affinity cGMP-specific 3',5'-cyclic phosphodiesterase 9A (Homo sapiens, UniProt O76083); assay: Inhibition of PDE9A2 (181 to 506 residues) (unknown origin) using [3H]-cGMP substrate incubated for 15 mins by liquid scintillation counting method relative to control
[6] = molecular target: Voltage-gated inwardly rectifying potassium channel KCNH2 (Homo sapiens, UniProt Q12809); assay: Inhibition of human ERG
Rattus norvegicus [7] = assay: Anti-pulmonary fibrosis activity in Sprague-Dawley rat model of BLM-induced idiopathic pulmonary fibrosis assessed as reduction in peak expiratory flow at 10 mg/kg, po dosed daily for 28 days by mka noninvasive pulmonary monitoring system based method; type: functional, organism-based
Cytochrome P450 2C9 = Cytochrome P450 2C9 (Homo sapiens, UniProt P11712); assay: Inhibition of human CYP2C9; type: ADME
Rattus norvegicus [8] = assay: Anti-pulmonary fibrosis activity in Sprague-Dawley rat model of BLM-induced idiopathic pulmonary fibrosis assessed as inhibition of alpha-SMA protein expression at 10 mg/kg, po dosed daily for 28 days by Western blot analysis; type: functional, organism-based
[9] = molecular target: High affinity cAMP-specific and IBMX-insensitive 3',5'-cyclic phosphodiesterase 8A (Homo sapiens, UniProt O60658); assay: Inhibition of PDE8A1 (480 to 820 residues) (unknown origin) using [3H]-cAMP substrate incubated for 15 mins by liquid scintillation counting method relative to control
[10] = AUC (0 to t) in Sprague-Dawley rat at 5 mg/kg, po; type: ADME, organism-based; conditions: in vivo
Cytochrome P450 2D6 = Cytochrome P450 2D6 (Homo sapiens, UniProt P10635); assay: Inhibition of human CYP2D6; type: ADME
[11] = Cmax in Sprague-Dawley rat at 5 mg/kg, po; type: ADME, organism-based; design: dose 5 mg/kg, route oral; conditions: in vivo
[12] = molecular target: cAMP and cAMP-inhibited cGMP 3',5'-cyclic phosphodiesterase 10A (Homo sapiens, UniProt Q9Y233); assay: Inhibition of PDE10A (449 to 770 residues) (unknown origin) using [3H]-cAMP substrate incubated for 15 mins by liquid scintillation counting method relative to control
[13] = Half life in Sprague-Dawley rat at 5 mg/kg, po; type: ADME, organism-based; conditions: in vivo
Cytochrome P450 1A2 = molecular target: T1, Cytochrome P450 1A2 (Homo sapiens, UniProt P05177); assay: Inhibition of human CYP1A2; type: ADME
T1 sequence (P05177 whole entry): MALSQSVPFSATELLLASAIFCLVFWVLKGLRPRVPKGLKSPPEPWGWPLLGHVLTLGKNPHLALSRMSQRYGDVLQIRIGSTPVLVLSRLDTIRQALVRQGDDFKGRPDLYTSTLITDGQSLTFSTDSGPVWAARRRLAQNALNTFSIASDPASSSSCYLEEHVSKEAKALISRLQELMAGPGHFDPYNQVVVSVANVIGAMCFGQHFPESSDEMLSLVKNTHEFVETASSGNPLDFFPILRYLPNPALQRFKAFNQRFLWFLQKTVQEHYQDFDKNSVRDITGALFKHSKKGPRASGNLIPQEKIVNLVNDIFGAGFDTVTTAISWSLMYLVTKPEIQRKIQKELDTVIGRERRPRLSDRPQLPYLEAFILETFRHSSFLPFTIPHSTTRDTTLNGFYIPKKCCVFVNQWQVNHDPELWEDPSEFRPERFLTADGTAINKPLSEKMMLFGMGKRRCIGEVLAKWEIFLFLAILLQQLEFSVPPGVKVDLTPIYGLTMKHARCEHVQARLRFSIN

Rattus norvegicus [14] = assay: Anti-pulmonary fibrosis activity in Sprague-Dawley rat model of BLM-induced idiopathic pulmonary fibrosis assessed as reduction in end-expiratory pause at 10 mg/kg, po dosed daily for 28 days by mka noninvasive pulmonary monitoring system based method; type: functional, organism-based
[15] = Half life in human liver microsomes; type: ADME, Microsome
Rattus norvegicus [16] = assay: Anti-pulmonary fibrosis activity in Sprague-Dawley rat model of BLM-induced idiopathic pulmonary fibrosis assessed as reduction in enhanced pause at 10 mg/kg, po dosed daily for 28 days by mka noninvasive pulmonary monitoring system based method; type: functional, organism-based
Rattus norvegicus [17] = assay: Anti-pulmonary fibrosis activity in Sprague-Dawley rat model of BLM-induced idiopathic pulmonary fibrosis assessed as reduction in peak inspiratory flow at 10 mg/kg, po dosed daily for 28 days by mka noninvasive pulmonary monitoring system based method; type: functional, organism-based
[18] = molecular target: 3',5'-cyclic-AMP phosphodiesterase 4D (Homo sapiens, UniProt Q08499); assay: Inhibition of PDE4D2 (86 to 413 residues) (unknown origin) using [3H]-cAMP substrate incubated for 15 mins by liquid scintillation counting method relative to control
[19] = Half life in Sprague-Dawley rat at 2.5 mg/kg, iv; type: ADME, organism-based; conditions: in vivo
[20] = AUC (0 to t) in Sprague-Dawley rat at 2.5 mg/kg, iv; type: ADME, organism-based; conditions: in vivo
[21] = Acute toxicity in mouse; type: organism-based; conditions: in vivo
[22] = molecular target: Cone cGMP-specific 3',5'-cyclic phosphodiesterase subunit alpha' (Homo sapiens, UniProt P51160); assay: Inhibition of PDE6C (1 to 858 residues) (unknown origin) using [3H]-cGMP substrate incubated for 15 mins by liquid scintillation counting method relative to control
[23] = molecular target: cGMP-specific 3',5'-cyclic phosphodiesterase (Homo sapiens, UniProt O76074); assay: Inhibition of PDE5A1 (535 to 860 residues) (unknown origin) using [3H]-cGMP substrate incubated for 15 mins by liquid scintillation counting method relative to control
Rattus norvegicus [24] = assay: Anti-pulmonary fibrosis activity in Sprague-Dawley rat model of BLM-induced idiopathic pulmonary fibrosis assessed as inhibition of collagen deposition at 10 mg/kg, po dosed daily for 28 days by Masson staining based assay; type: functional, organism-based
[25] = Half life in rat liver microsomes; type: ADME, Microsome
Rattus norvegicus [26] = assay: Anti-pulmonary fibrosis activity in Sprague-Dawley rat model of BLM-induced idiopathic pulmonary fibrosis assessed as reduction in end-inspiratory pause at 10 mg/kg, po dosed daily for 28 days by mka noninvasive pulmonary monitoring system based method; type: functional, organism-based
[27] = AUC (0 to infinity) in Sprague-Dawley rat at 2.5 mg/kg, iv; type: ADME, organism-based; design: dose 2.5 mg/kg, time infinity, route intravenous; conditions: in vivo
Rattus norvegicus [28] = assay: Anti-pulmonary fibrosis activity in Sprague-Dawley rat model of BLM-induced idiopathic pulmonary fibrosis assessed as reduction in lung structural damage at 10 mg/kg, po dosed daily for 28 days by H and E staining based assay; type: functional, organism-based
[29] = Tmax in Sprague-Dawley rat at 5 mg/kg, po; type: ADME, organism-based; conditions: in vivo
[30] = MRT (0 to t) in Sprague-Dawley rat at 5 mg/kg, po; type: ADME, organism-based; conditions: in vivo

Sequence of Cone cGMP-specific 3',5'-cyclic phosphodiesterase subunit alpha' (P51160 whole entry, the tested form may be a part): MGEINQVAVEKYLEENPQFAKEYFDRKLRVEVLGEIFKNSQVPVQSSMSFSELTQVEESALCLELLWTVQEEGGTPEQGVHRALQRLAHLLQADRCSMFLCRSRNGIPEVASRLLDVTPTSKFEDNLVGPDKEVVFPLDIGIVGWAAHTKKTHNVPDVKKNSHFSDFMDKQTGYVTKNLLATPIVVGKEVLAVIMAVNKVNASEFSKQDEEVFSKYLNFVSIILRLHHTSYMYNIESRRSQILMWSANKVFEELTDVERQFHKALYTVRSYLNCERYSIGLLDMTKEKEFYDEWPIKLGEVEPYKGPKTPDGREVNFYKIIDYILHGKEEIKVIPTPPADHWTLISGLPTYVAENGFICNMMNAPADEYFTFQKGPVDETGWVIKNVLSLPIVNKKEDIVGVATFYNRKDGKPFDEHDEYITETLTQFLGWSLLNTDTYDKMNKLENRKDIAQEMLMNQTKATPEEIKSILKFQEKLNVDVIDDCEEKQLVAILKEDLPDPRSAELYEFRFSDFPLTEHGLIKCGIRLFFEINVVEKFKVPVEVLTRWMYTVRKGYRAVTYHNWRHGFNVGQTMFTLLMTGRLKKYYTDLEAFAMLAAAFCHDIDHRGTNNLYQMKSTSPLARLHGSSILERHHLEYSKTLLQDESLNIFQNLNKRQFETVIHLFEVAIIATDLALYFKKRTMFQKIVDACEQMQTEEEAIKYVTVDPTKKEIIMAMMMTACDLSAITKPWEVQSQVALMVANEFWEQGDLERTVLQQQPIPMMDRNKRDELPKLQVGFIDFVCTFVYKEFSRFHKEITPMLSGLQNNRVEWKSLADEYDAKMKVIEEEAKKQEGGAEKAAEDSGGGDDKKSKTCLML
Sequence of Voltage-gated inwardly rectifying potassium channel KCNH2 (Q12809 whole entry): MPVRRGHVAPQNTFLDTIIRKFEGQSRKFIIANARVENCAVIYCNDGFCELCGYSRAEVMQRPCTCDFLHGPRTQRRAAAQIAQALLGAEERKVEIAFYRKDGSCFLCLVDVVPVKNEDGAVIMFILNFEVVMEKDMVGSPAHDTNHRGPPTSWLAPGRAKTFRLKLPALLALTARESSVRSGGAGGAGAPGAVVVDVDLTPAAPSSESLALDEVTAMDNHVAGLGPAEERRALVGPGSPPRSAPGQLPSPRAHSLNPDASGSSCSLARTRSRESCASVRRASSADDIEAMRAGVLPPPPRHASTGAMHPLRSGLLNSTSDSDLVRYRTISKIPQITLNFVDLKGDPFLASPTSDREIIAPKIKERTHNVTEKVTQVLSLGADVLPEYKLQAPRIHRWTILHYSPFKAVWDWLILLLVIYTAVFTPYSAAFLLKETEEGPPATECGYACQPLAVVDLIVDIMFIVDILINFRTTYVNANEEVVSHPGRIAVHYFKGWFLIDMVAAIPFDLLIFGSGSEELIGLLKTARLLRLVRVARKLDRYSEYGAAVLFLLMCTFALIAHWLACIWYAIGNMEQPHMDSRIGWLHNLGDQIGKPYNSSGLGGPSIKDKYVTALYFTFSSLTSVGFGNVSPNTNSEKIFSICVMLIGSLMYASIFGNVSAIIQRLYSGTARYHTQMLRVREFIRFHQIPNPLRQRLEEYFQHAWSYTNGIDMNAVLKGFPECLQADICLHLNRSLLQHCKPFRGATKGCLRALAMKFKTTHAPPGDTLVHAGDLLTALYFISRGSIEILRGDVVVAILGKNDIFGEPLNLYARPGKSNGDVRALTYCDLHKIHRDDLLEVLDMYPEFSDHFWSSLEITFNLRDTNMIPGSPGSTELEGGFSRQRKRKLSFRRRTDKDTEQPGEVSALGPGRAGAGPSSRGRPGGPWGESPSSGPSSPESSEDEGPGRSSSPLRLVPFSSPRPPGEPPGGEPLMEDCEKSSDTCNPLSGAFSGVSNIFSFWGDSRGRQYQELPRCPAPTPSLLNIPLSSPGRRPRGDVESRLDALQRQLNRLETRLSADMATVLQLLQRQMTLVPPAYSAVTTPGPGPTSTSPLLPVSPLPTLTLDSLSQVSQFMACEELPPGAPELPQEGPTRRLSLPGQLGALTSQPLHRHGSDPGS
Sequence of Cytochrome P450 2D6 (P10635 whole entry): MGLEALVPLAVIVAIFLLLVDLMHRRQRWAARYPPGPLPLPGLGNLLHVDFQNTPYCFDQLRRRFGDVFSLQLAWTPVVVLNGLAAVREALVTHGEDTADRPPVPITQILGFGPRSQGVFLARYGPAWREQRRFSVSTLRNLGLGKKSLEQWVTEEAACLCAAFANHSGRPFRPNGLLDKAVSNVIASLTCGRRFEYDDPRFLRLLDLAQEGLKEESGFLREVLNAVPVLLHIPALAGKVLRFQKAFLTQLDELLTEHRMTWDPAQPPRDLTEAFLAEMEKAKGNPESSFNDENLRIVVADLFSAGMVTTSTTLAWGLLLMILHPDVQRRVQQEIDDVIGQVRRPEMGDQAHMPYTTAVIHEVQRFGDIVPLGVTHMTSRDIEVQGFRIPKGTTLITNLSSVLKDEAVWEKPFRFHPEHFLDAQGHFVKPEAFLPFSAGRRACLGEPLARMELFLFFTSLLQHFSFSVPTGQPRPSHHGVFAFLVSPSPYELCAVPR
Sequence of High affinity cAMP-specific and IBMX-insensitive 3',5'-cyclic phosphodiesterase 8A (O60658 whole entry, the tested form may be a part): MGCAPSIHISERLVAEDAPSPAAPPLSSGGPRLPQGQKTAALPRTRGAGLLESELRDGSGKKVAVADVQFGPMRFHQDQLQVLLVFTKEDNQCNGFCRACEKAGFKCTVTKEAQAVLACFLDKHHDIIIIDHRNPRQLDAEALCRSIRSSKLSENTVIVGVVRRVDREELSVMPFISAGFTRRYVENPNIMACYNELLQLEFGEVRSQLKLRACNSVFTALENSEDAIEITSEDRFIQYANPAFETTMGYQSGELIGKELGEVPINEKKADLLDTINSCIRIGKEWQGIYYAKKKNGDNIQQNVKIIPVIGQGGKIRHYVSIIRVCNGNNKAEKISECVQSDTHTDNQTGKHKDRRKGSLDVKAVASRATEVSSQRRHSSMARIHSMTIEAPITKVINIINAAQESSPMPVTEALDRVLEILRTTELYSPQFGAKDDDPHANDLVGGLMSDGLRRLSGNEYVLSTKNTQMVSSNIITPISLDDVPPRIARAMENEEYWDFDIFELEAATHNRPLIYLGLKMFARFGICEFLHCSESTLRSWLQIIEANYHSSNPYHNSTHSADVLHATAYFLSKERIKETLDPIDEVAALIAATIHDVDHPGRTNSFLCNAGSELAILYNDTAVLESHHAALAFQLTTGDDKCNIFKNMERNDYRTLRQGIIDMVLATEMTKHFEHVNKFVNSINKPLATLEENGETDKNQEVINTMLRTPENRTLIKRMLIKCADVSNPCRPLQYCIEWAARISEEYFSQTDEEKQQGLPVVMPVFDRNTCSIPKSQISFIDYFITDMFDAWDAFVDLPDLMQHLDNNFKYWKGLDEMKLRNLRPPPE
Sequence of 3',5'-cyclic-AMP phosphodiesterase 4D (Q08499 whole entry, the tested form may be a part): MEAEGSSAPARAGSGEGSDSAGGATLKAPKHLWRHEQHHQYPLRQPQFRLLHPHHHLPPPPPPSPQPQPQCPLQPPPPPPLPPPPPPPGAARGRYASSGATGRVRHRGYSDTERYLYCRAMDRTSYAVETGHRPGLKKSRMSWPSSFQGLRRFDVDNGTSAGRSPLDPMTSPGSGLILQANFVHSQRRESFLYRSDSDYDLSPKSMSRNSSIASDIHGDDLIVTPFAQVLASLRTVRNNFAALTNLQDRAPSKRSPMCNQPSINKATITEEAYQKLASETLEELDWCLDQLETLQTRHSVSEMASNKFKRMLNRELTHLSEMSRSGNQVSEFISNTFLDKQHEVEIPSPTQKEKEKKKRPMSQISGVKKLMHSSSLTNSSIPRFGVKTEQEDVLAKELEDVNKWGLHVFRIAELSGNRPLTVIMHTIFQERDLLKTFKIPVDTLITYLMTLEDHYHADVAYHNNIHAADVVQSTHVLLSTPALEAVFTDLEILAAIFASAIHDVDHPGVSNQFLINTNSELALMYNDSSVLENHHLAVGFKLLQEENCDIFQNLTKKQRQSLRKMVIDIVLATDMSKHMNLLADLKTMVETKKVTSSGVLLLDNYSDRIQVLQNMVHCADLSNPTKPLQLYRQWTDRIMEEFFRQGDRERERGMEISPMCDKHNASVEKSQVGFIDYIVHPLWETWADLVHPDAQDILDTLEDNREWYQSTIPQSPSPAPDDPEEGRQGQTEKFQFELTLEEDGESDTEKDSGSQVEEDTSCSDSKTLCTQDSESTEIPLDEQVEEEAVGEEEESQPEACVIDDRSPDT
Sequence of High affinity cGMP-specific 3',5'-cyclic phosphodiesterase 9A (O76083 whole entry, the tested form may be a part): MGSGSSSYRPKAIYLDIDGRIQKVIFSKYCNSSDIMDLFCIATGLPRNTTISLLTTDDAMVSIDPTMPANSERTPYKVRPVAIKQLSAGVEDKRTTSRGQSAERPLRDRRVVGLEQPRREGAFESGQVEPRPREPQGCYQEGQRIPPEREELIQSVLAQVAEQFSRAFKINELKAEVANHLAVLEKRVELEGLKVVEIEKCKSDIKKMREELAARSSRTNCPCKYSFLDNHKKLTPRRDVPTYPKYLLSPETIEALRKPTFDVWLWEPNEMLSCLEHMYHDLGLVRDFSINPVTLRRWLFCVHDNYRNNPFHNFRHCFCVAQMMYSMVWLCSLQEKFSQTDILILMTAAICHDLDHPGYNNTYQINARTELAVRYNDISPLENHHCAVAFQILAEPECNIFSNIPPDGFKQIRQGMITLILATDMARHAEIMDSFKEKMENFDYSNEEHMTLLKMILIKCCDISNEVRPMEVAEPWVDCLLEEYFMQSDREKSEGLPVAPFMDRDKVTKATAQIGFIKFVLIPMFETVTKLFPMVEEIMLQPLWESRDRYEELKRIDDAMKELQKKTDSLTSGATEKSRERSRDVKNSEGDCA

C[C@@H](Nc1nc2c(cnn2C(C)(C)C)c(=O)n1Cc1ccc(F)cc1)c1ccc(Cl)cc1
bioavailability [1]: 34% | Activity (Rattus norvegicus [2]): Active | Activity (Homo sapiens): Dose-dependent effect | solubility [3]: 16 µg/mL (≈ 35.2 µM) | solubility [4]: 22 µg/mL (≈ 48.5 µM) | IC50 [5]: > 10 µM | IC50 [6]: 11 µM | Activity (Rattus norvegicus [7]): Active | IC50 (Cytochrome P450 2C9): 6.6 µM | Activity (Rattus norvegicus [8]): Active | IC50 [9]: 2020 nM | AUC(0-t) [10]: 1300 ng·h/mL | IC50 (Cytochrome P450 2D6): > 25 µM | Cmax [11]: 169 ng/mL | IC50 [12]: 1770 nM | half-life [13]: 222 min | IC50 (Cytochrome P450 1A2): > 25 µM | Activity (Rattus norvegicus [14]): Active | half-life [15]: 15.7 min | Activity (Rattus norvegicus [16]): Active | Activity (Rattus norvegicus [17]): Active | IC50 [18]: 699 nM | half-life [19]: 330 min | AUC(0-t) [20]: 1930 ng·h/mL | MTD [21]: > 1500 mg/kg | IC50 [22]: > 10 µM | IC50 [23]: 370 nM | Activity (Rattus norvegicus [24]): Active | half-life [25]: 15.8 to 16 min | Activity (Rattus norvegicus [26]): Active | AUC(0-inf) [27]: 2100 ng·h/mL | Activity (Rattus norvegicus [28]): Active | Tmax [29]: 4 h | MRT last [30]: 6.88 h

Reference: ChEMBL document CHEMBL4610129, “Discovery of Novel Selective and Orally Bioavailable Phosphodiesterase-1 Inhibitors for the Efficient Treatment of Idiopathic Pulmonary Fibrosis” (J Med Chem, 2020)
